Broadly, the IC50 is the midpoint of a concentration-inhibition curve. High values mean a need for much substance, low ones inhibition by little substance.

Format in all cases: cell-based
The test system of one assay is Stat3. In words: Stat3-luciferase (Stat3-Luc) reporter assay, OSM-stimulated HeLa cells. The settings on record: FIG. 6. As for the experimental part: HeLa Cells were co-transfected with Stat3-luciferase (Stat3-Luc) reporter vector (Panomics, Fremont, Calif.) and Renilla luciferase (Promega, Madison, Wis.) using Lipofectamine 2000 as described by the manufacturer (Invitrogen). Following transfection, cells were maintained in medium containing 0.5% FBS for 24 hours. Cells were then treated with the indicated compound for 30 minutes prior to the addition of 25 ng/ml oncostatin M (OSM) (R&D Systems, Minneapolis, Minn.) to the medium. 6 hours following OSM addition, cells were harvested and levels of firefly and renilla luciferase were measured using the Dual-Glo Luciferase Assay System as described by the manufacturer (Promega).
Compounds were tested for their ability to inhibit Stat3 transcription activation activity in cells using a Stat3-luciferase (Stat3-luc) reporter construct. Cells transfected with Stat3-luc were cultured in reduced serum medium prior to addition of indicated compound for 30 minutes. Cells were then stimulated with 25 ng/ml oncostatin M (OSM) for 6 hours followed by detection of Stat3-luc reporter activity. […] AG490, a known inhibitor of the Jak-Stat pathway, was included as a positive control for Stat3 inhibition.
(A reporter such as luciferase makes a cellular process visible.)

Assay [1] has as its system Peripheral blood mononuclear cells (PBMCs). In words: MTT cell viability of normal PBMCs. The settings on record: PBMC, 24 hour incubation. As for the experimental part: For 3-(4,5 dimethylthiazol-2-yl)-2,5-diphenyltetrazolium (MTT) (Sigma-Aldrich, St. Louis, Mo.) analysis, cells were plated in 96 well plates at 10,000 cells per well. 24 hours after plating, compound was added to cells at indicated doses. 22 hours following compound addition, MTT was added to each well (0.5 mg/ml, final concentration) and plates were incubated for an additional 2 hours at 37° C. Medium was then aspirated and the formazan product was solubilized in 100 μl of isopropyl alcohol. The absorbance of each well was measured at 570 nm using a microplate reader.
Under assay conditions that result in the death of virtually all cancer cells, normal cells remain substantially viable.

The test system of the next assay is CD34^+ BM Erythroid. As to the kind of experiment: Colony formation assay, CD34+ bone marrow erythroid lineage. The text has this:
In a similar fashion to PMBCs, CD34^+ bone marrow hematopoietic stem cells were spared when treated with compound 401.

The subject of assay [2] is Hoechst side population cells. In words: Annexin V staining of Hoechst side population cells. The note with it: FIG. 9A. As for the experimental part:
Cells treated with or without compound were harvested at 5 hours post treatment for Annexin-V staining. Collected cells were washed with PBS and resuspended in Annexin-V-FITC containing buffer and stained according to manufactures directions (Roche). Annexin-V positive cells were determined by Flow cytometry.
Cells treated with indicated compound for an indicated time were either fixed in 4% formaldehyde or cold methanol for the detection of Annexin V, cleaved caspase 3, or stat3, respectively. Coverslips were air dried and rehydrated in PBS at room temperature for 10 min. Samples were then incubated in blocking buffer (PBS, 5% FBS) for 10 min at room temperature in a humid chamber. Cells were incubated overnight at 4° C. with primary antibodies. After washing, the cells were incubated for 1 hour at room temperature with a 1:500 dilution of FITC conjugated anti-rabbit antibody. Images were captured with a Nikon TE200 microscope equipped with epifluorescence and a SPOT mosaic CCD camerapolyclonal Anti-cleaved caspase 3 antibody (1:100) was obtained from Cell Signaling Technology, Danvers, Mass. Annexin-V-FITC was obtained from Roche, Penzberg, Germany. Polyclonal anti-Stat3 antibody was obtained from Santa Cruz.
The Hoechst side population cells were treated with compound 401 and the mode of cell death was accessed by Annexin V (an early marker for apoptosis) staining.

A further assay concerns CD44^high CSCs. In words: Sphere assay with CD44high CSCs. The settings on record: spheres grown 72 hours before challenge, FIGS. 10A and 10B. How it is done: A reliable method of measuring the self-renewal capacity of cell population if the ability to be cultured as spheres in the absence of serum or attachment. CD44^high FaDu or Hoechst side population cancer stem cells were cultured in ultra low attachment plates in cancer stem cell media (DMEM/F12, B27 Neurobasal supplement, 20 ng/ml EGF, 10 ng/ml FGF, 4 μg/ml insulin, and 0.4% BSA) to allow spheres formation. Typically, sphere formation was evaluated by microscopy after 10-14 days in culture and spheres with >50 cells were scored.
One of the hallmarks cancer stem cells is their ability to self-renew. A reliable method of measuring the self-renewal capacity of cell populations is the ability to be cultured as spheres in the absence of serum or attachment. To compare the ability of compound 401 to other targeted and chemotherapeutic agents, FACS-isolated CD44^high CSCs were grown as spheres for 72 hours before being challenged with a panel of therapeutic agents. […] Tarceva, Sutent, and Gleevec were added at approximately three times their reported therapeutic concentrations.

As for `CC(=O)c1cc2c(o1)C(=O)c1ccccc1C2=O` [Compound 401, 2-acetylnaphtho[2,3-b]furan-4,9-dione], the “inhibition of OSM-stimulated Stat3 reporter activity” value with Stat3 is “inhibited OSM-stimulated Stat3 reporter activity”. For the same molecule, the IC50 in assay [1] is 14 µM; in the assay with CD34^+ BM Erythroid (normal cells, 6 hours incubation, colony formation), over 30 µM. For the same molecule, in the assay with CD34^+ BM Erythroid (CD34+ bone marrow cells vs DU145 and HT29, in vitro), the therapeutic window entry is on record as “greater than 50 fold”. Also, the “mode of cell death by Annexin V staining” value in assay [2] is recorded as “the dying cells are Annexin V positive”. Besides, the “prevention of sphere proliferation” value in the assay on CD44^high CSCs was “effective at preventing sphere proliferation”.

Values taken from patent US20210024482A1, “Novel Group of STAT3 Pathway Inhibitors and Cancer Stem Cell Pathway Inhibitors” (Sumitomo Dainippon Pharma Oncology, Inc., priority 2007, published 2021).
